Earlier results in patent US11497742B1, “Pharmaceutical composition for the treatment of Covid-19 infection” (priority 2021, dated 2022).

How the values were obtained:
[1] = tested on: SARS-CoV-2 infection; conditions: interim analysis, 775 patients, oral
[2] = biological target: COVID-19 Mpro (Severe acute respiratory syndrome coronavirus 2, UniProt P0DTD1); conditions: Hussein and Elkhair 2021

Compound	reduced the risk of hospitalization or death [1]	inhibition of COVID-19 Mpro (molecular docking, low binding energies) [2]
CC(C)C(=O)OC[C@H]1O[C@@H](n2ccc(NO)nc2=O)[C@H](O)[C@@H]1O [Molnupiravir]	approximately 50%	–
Zn(CQ)Cl2H2O	–	potent inhibitors
Zn(HCQ)Cl2H2O	–	potent inhibitors
